Measured values reported in US20240262860A1, “PENTACYCLIC TRITERPENOID GLYCOSIDE COMPOUND, AND PREPARATION METHOD THEREFOR AND USE THEREOF” (SHANGHAI INSTITUTE OF MATERIA MEDICA, CHINESE ACADEMY OF …, priority 2020, published 2024).
“Also recorded” adds a separate entry of the source.

How the values were obtained:
[1] = test system: intestinal endocrine cell line STC-1 cell; test: In vitro GLP-1 secretion in STC-1 cells (HTRF kit); assay type: cell-based; settings: for EC50: 1 h treatment, read-out: EC50 of promoting GLP-1 secretion in vitro
Description: Cell line: intestinal endocrine cell line STC-1 cell
Positive control: INT777 (TGR5 receptor agonist)
Others: KRBH buffer, BSA, DPP4 inhibitor
STC-1 cells were seeded with a certain density. After the cells adhered to the wall overnight, they were starved with KRBH buffer, while BSA was used to maintain nutrition, and degradation of GLP-1 was reduced with DPP4 inhibitors. After 1 h, they were replaced with glucose free or glucose containing KRBH buffer to stimulate GLP-1 secretion. At the same time, compounds of certain concentrations were added. After 1 h of treatment, supernatant was collected and tested for GLP-1 concentration with HTRF kit. The secretion of LDH was also detected to indicate the toxicity of the compounds.

influenza virus = assay type: cell-based; settings: MDCK cells, screening concentration 50 μM, 36 h
MDCK cell = test: Cytotoxicity in the anti influenza virus assay (MDCK cells); assay type: cell-based; settings: screening concentration 50 μM
Description: CellTiter-Glo® Luminescent Cell Viability Assay
Screening concentration: 50 μM
MDCK cells were laid with 96 well plates (1×10^4/well) and incubated in 37° C. and 5% CO2 incubators for 24 h, then the medicine was added.
After dosing, the 96 well plate was put in the 37° C., 5% CO2 incubator for 36 h, and detected with the microplate reader.

SARS Cov-2 virus = SARS Cov-2 virus replication inhibition in Vero E6 cells (viral copy number by qPCR); assay type: cell-based; settings: Severe acute respiratory syndrome coronavirus 2, Vero C1008, MOI 0.05, 24 hours
ICR mice = test: Oral glucose tolerance (OGTT) pharmacodynamic experiment in ICR mice; assay type: in vivo; settings: for hypoglycemic effect: OGTT; for hypoglycemic activity: oral glucose tolerance, glucose 5 g/kg, compound given 0.5 h before sugar
Description: 1. Pharmacodynamic Experiment of Compound on Oral Glucose Tolerance in ICR Mice
After the animals arrived at WuXi AppTec facilities, they were kept in the animal feeding room with strictly controlled environmental conditions. The temperature was kept at 20-24° C. and the humidity was kept at 30-70% in the feeding room. The temperature and humidity of the feeding room were monitored in real time through the temperature and humidity meter, and the temperature and humidity were recorded twice a day (once in the morning and once in the afternoon). The lighting in the animal feeding room was controlled by an electronic timing lighting system, which was turned on for 12 hours every day and turned off for 12 hours (on at 7:00 a.m. and off at 19:00 p.m.). During the experiment, the animals were raised in a single cage and toys were provided for mice in each cage. During the experiment, the animals freely took food (growth/reproduction feed for rats and mice) and water.
After the animals arrived, they can adapt to the environment for 1-2 weeks before conducting the experiment.
1) Preparation of liquid medicine: each compound was prepared on the first day of the experiment, and then stored in a 4° C. refrigerator for use on the next day.
2) Administration: After grouping, animals in each group were administered 0.5 hours before sugar administration.
3) Oral glucose tolerance experiment: sugar was administrated to the animals by gavage 0.5 hour after the end of the animal administration, and the time of sugar administration was recorded as 0 min. The oral dose of glucose was 5 g/kg, 10 ml/kg. The blood glucose of animals was detected before administration, before sugar administration, and 15, 30, 60, 90, and 120 minutes after sugar administration. The blood glucose was detected with a blood glucose meter and the corresponding blood glucose test paper.

PK property in mice = assay type: in vivo, ICR (CD-1) mice; settings: PO 25 mg/kg, IV 3 mg/kg
Description: Species/strain: ICR (CD-1) mice
Gender/number of rats: male (n=6)
Weight (g): male (20-24 g)
Type of diet: standard rodent diet • freely drink • Fasted for 12 hours before administration and keeping fasting for 2 hours.
Feeding: animal room environment control (target conditions: temperature 18 to 29° C., relative humidity 30 to 70%. Temperature and relative humidity were monitored every day. The electronic time control lighting system was used to provide 12 hours of light/12 hours of dark cycle.

Structure (SMILES): CC[C@H]1[C@@H](O)[C@@H]2[C@H](C[C@H](O)[C@]3(C)[C@@H]([C@H](C)C[C@H](C)C(=O)O)CC[C@@H]23)[C@@]2(C)CC[C@@H](O)C[C@@H]12 [INT777, reference compound]
- EC50 [1]: 22.8 µM

Structure (SMILES): CC1(C)CC[C@]2(C(=O)O)CC[C@]3(C)C(=CCC4[C@@]5(C)CC[C@H]([C@@H](O)[C@@H]6OC(CO)[C@@H](O)C(O)C6O)C(C)(C)C5CC[C@]43C)C2C1 (stereo partly drawn) [Example A2, (3S,5S,8R,9R,10S,14R,17R,18S)-Oleanolicacid-3-(1′R)-(hydroxyl)methyl-β-D-glucopyranoside]
- virus inhibition rate (influenza virus): same virus inhibition rate
- cytotoxicity (MDCK cell): low cytotoxicity; also recorded: lower cytotoxicity than that of ribavirin

Structure (SMILES): CNC(=O)C1O[C@@H]([C@H](O)[C@H]2CC[C@@]3(C)C(CC[C@]4(C)C3CC=C3C5CC(C)(C)CC[C@]5(C(=O)O)CC[C@]34C)C2(C)C)C(O)C(O)[C@@H]1O (stereo partly drawn) [Example A114, (3S,5S,8R,9R,10S,14R,17R,18S)-Oleanolic acid-3-(1′R)-(hydroxy)methyl-6″-methylamino-β-D-glucurouopyranoside]
- EC50 (SARS Cov-2 virus): 4.6 µM

Structure (SMILES): CC1(C)CC[C@]2(C(=O)O)CC[C@]3(C)C(=CCC4[C@@]5(C)CC[C@@H](C[C@@H]6OC(C(=O)O)[C@@H](O)C(O[C@@H]7OC[C@@H](O)C(O)C7O)C6O)C(C)(C)C5CC[C@]43C)C2C1 (stereo partly drawn) [Example A64, (3R,5S,8R,9R,10S,14R,17R,18S)-Oleanolic acid-3-methyl-β-D-xylopyranosyl(1→3)-β-D-glucurouopyranoside]
- in vitro effect of promoting GLP-1 secretion [1]: good in vitro effect of promoting GLP-1 secretion
- EC50 [1]: 7.23 µM

Structure (SMILES): CC1O[C@@H]([C@H](O)[C@H]2CC[C@@]3(C)C(CC[C@]4(C)C3CC=C3C5CC(C)(C)CC[C@]5(C(=O)O)CC[C@]34C)C2(C)C)C(O)C(O)[C@H]1O (stereo partly drawn) [Example A43, (3S,5S,8R,9R,10S,14R,17R,18S)-Oleanolic acid-3-(1'S)-(hydroxy)methyl-α-L-rhamnopyranoside]
- hypoglycemic effect (ICR mice; 25 mg/kg): obvious hypoglycemic effect
- hypoglycemic effect (ICR mice; 50 mg/kg): further enhanced hypoglycemic effect
- hypoglycemic activity (ICR mice): good in vivo hypoglycemic effect; also recorded: best hypoglycemic activity

Structure (SMILES): CC1(C)CC[C@]2(C(=O)OCn3cccn3)CC[C@]3(C)C(=CCC4[C@@]5(C)CC[C@H]([C@@H](O)[C@@H]6OC(C(=O)O)[C@@H](O)C(O)C6O)C(C)(C)C5CC[C@]43C)C2C1 (stereo partly drawn) [Example A104, (3S,5S,8R,9R,10S,14R,17R,18S)-28-O-(Pyrazol-1″′-yl)methyl oleanolic acid-3-(1′R)-(hydroxy)methyl-β-D-glucurouopyranoside]
- EC50 (SARS Cov-2 virus): 3.6 µM
- PK properties (PK property in mice): good PK properties

Structure (SMILES): CC1(C)CC[C@]2(C(=O)O)CC[C@]3(C)C(=CCC4[C@@]5(C)CC[C@H]([C@@H](O)[C@@H]6OC(C(=O)O)[C@@H](O)C(O)C6O)C(C)(C)C5CC[C@]43C)C2C1 (stereo partly drawn) [Example A25, (3S,5S,8R,9R,10S,14R,17R,18S)-Oleanolic acid-3-(1′R)-(hydroxy)methyl-β-D-glucurouopyranoside]
- hypoglycemic effect (ICR mice; 25 mg/kg): obvious hypoglycemic effect
- hypoglycemic effect (ICR mice; 50 mg/kg): further enhanced hypoglycemic effect
- hypoglycemic activity (ICR mice): good in vivo hypoglycemic effect; also recorded: best hypoglycemic activity
